Experimental data published in patent publication US20240217990A1 (Gilead Sciences, Inc., priority 2021, published 2024).
Values belong to the compound of their own block, whether it stands above or below them.

Key:
TLR7 = molecular target: T1, TLR7 (Homo sapiens, UniProt Q9NYK1); experiment: TLR7 human PBMC cell-based assay (antagonist, GS-986 stimulated cytokine release); settings: human PBMCs; TLR7 agonist GS-986 400 nM, 6 hours; cytokines (IL-6 and IFNα) in supernatant; read-out: TLR-7 EC50
T1 construct: Human peripheral blood mononuclear cells (PBMCs) consist of lymphocytes, monocytes and dendritic cells that express TLR7, TLR8 and TLR9; endogenous in cells; host or cells: cryopreserved human PBMCs from healthy donors
T1 sequence (Q9NYK1 27-1049): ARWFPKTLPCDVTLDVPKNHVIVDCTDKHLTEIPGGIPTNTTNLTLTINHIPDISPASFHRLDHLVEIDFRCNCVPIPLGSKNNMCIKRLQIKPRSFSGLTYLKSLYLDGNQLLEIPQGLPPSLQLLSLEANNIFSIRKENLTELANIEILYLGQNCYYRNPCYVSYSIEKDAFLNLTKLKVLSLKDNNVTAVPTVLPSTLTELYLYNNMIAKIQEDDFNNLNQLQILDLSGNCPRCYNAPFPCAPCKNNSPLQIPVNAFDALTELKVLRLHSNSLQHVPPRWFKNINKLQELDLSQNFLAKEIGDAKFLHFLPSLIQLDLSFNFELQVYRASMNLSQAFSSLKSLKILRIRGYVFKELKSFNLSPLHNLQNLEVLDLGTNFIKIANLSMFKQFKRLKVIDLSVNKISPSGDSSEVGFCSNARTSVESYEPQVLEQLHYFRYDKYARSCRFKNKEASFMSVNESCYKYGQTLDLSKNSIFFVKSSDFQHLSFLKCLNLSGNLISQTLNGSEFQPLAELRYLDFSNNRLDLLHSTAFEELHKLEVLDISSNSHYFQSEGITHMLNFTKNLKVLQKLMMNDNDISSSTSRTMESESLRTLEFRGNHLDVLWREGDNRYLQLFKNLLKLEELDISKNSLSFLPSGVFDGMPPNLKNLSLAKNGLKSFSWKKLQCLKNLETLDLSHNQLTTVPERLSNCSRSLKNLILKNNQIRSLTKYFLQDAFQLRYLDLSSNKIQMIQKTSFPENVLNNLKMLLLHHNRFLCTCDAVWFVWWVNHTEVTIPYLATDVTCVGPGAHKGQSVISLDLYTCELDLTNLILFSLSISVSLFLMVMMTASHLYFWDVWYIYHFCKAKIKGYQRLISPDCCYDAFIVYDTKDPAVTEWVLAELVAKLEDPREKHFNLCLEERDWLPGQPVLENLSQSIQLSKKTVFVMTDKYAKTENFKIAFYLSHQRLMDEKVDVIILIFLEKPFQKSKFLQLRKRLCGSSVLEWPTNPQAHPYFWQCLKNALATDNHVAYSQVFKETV
Source text: (§1) Human peripheral blood mononuclear cells (PBMCs) consist of lymphocytes, monocytes and dendritic cells that express TLR7, TLR8 and TLR9. These cells respond to TLR7, TLR8 and TLR9 ligand stimulation and produce cytokines and chemokines in vitro and in vivo. Human PBMCs are therefore suitable to be used in a cell-based assay to assess the in vitro potency of a TLR 7, 8, and/or 9 antagonist. The result is expected to be more translatable to the pharmacodynamics response in vivo than cell line-based assays.
Cryopreserved human PBMCs from healthy donors were thawed and resuspended in RPMI-1640 media with L-glutamine (Corning) supplemented with 10% Fetal Bovine Serum (Hyclone) and 1× Penicillin-Streptomycin (Corning). After counting, the cell density was adjusted to 2 million cells/ml and incubated for 1 hour at 37° C., 5% CO2 for recovery. Following the recovery, the cells were plated by adding 50 μl per well (100,000 cells) to 384-well cell culture plates (Greiner) containing 250 nl of test antagonists in 100% DMSO per well, in a 10 points dose response in quadruplicates. PBMCs were incubated in the presence of test antagonists for one hour at 37° C., 5% CO2 before being stimulated with a TLR7 or TLR9agonist. GS-986 (Gilead Sciences) was used as the TLR7 agonist at a final concentration of 400 nM. ODN-2216 (InvivoGen) was used as the TLR9 agonist at a final concentration of 3 μM. PBMCs were incubated in the presence of the test antagonist and the TLR7 (or TLR9) agonist for an additional 6 hours at 37° C., 5% CO2. At the end of the incubation, the cell culture plates were centrifuged at 500 g for 5 min, and the cell culture supernatant was collected. The level of cytokines (IL-6 and IFNα) in the supernatant was measured by electrochemiluminescence immunoassays (Mesoscale Discovery) following manufacturer's recommended protocols. The level of cytokine measured was plotted against the test antagonist concentration and fitted to a sigmoidal function to determine the EC50, which are shown below in Table 11.

TLR8 = molecular target: T2, TLR8 (Homo sapiens, UniProt Q9NR97); experiment: TLR8 human PBMC cell-based assay (antagonist, Compound A stimulated cytokine release); settings: human PBMCs; TLR8 agonist Compound A 800 nM, 6 hours; cytokines (TNFa and IL 12p40) in supernatant; read-out: TLR-8 EC50
T2 construct: Human peripheral blood mononuclear cells (PBMCs) consist of lymphocytes, monocytes and dendritic cells that express TLR7, TLR8 and TLR9; endogenous in cells; host or cells: cryopreserved human PBMCs from healthy donors
T2 sequence (Q9NR97 27-1041): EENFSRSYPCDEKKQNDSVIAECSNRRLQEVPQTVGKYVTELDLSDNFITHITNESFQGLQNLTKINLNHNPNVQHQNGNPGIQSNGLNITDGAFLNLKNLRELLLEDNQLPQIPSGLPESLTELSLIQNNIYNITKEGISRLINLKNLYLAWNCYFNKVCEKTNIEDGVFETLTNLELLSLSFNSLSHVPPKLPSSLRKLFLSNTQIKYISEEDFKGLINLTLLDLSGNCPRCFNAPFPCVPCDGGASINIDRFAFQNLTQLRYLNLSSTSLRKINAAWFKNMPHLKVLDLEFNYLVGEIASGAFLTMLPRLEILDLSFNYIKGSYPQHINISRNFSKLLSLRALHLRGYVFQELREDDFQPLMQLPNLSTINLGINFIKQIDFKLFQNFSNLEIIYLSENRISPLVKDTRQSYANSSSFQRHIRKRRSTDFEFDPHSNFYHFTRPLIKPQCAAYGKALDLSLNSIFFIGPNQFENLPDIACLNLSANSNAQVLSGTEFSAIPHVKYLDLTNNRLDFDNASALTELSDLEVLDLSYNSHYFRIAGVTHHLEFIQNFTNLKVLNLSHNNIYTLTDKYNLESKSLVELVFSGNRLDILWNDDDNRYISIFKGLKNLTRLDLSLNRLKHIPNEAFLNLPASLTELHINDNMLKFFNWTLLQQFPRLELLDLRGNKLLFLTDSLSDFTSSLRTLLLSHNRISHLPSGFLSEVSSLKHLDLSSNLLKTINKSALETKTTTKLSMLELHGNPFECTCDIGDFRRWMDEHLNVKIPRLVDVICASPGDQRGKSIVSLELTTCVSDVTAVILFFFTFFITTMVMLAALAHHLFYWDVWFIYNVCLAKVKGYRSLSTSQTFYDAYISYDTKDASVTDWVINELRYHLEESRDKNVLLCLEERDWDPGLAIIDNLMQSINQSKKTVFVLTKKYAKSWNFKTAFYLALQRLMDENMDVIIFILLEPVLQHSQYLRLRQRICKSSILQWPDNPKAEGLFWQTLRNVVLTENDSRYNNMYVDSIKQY
Source text: as §1
Cryopreserved human PBMCs from healthy donors were thawed and resuspended in RPMI-1640 media with L-glutamine (Corning) supplemented with 10% Fetal Bovine Serum (Hyclone) and 1X Penicillin-Streptomycin (Corning). After counting, the cell density was adjusted to 2 million cells/ml and incubated for 1 hour at 37° C., 5% CO2 for recovery. Following the recovery, the cells were plated by adding 50 μl per well (100,000 cells) to 384-well cell culture plates (Greiner) containing 250 nl of test antagonists in 100% DMSO per well, in a 10 points dose response in quadruplicates. PBMCs were incubated in the presence of antagonists for one hour at 37° C., 5% CO2 before being stimulated with TLR8 agonist. Compound A (Gilead Sciences, U.S. Pat. No. 10,285,990) was used as the TLR8 agonist at a final concentration of 800 nM. PBMCs were incubated in the presence of antagonist and the TLR8 agonist for an additional 6 hours at 37° C., 5% CO2. At the end of the incubation, the cell culture plates were centrifuged at 500 g for 5 min, and the cell culture supernatant was collected. The level of cytokines (TNFa and IL 12p40) in the supernatant was measured by electrochemiluminescence immunoassays (Mesoscale Discovery) following manufacturer's recommended protocols. The level of cytokine measured was plotted against the antagonist concentration and fitted to a sigmoidal function to determine the EC50, which are shown below in Table 11.

Structure (SMILES): CCc1c(-c2cc(C)c3ncnn3c2)[nH]c2cc(-c3nc(N4CCNCC4)no3)sc12 [Example 47]
EC50 (TLR7): 0.6 nM
EC50 (TLR8): 2.1 nM

Structure (SMILES): Cc1cc(-c2[nH]c3cc(-c4ccc(N5CCNCC5)nc4)sc3c2C(C)C)cc(C)n1 [Example 51, 5-(2,6-dimethyl-4-pyridyl)-6-isopropyl-2-(6-piperazin-1-yl-3-pyridyl)-4F1-thieno[3,2-b]pyrrole]
EC50 (TLR7): 20.9 nM
EC50 (TLR8): 61.4 nM

Structure (SMILES): Cc1cc(-c2[nH]c3cc(-c4nnc(C5CCNCC5)o4)sc3c2C(C)C)cc(C)n1 [Example 52, 2-[5-(2,6-dimethyl-4-pyridyl)-6-isopropyl-4H-thieno[3,2-b]pyrrol-2-yl]-5-(4-piperidyl)-1,3,4-oxadiazole]
EC50 (TLR7): 36.6 nM
EC50 (TLR8): 16 nM

Structure (SMILES): Cc1cc(-c2[nH]c3cc(-c4nc(N5CCNCC5)no4)sc3c2C(C)C)cc(C)n1 [Example 54, 5-[5-(2,6-dimethyl-4-pyridyl)-6-isopropyl-4H-thieno[3,2-b]pyrrol-2-yl]-3-piperazin-1-yl-1,2,4-oxadiazole]
EC50 (TLR7): 3.7 nM
EC50 (TLR8): 7 nM

Structure (SMILES): Cc1cc(-c2[nH]c3cc(-c4nc(C5CCNCC5)no4)sc3c2C(C)C)cc(C)n1 [Example 55]
EC50 (TLR7): 7.6 nM
EC50 (TLR8): 14.9 nM

Structure (SMILES): Cc1cc(-c2[nH]c3cc(C(=O)N(C)C4CCNCC4)sc3c2C(C)C)cn2ncnc12 [Example 56, 6-isopropyl-N-methyl-5-(8-methyl-[1,2,4]triazolo[1,5-a]pyridin-6-yl)-N-(4-piperidyl)-4H-thieno[3,2-b]pyrrole-2-carboxamide]
EC50 (TLR7): 0.5 nM
EC50 (TLR8): 10.2 nM

Structure (SMILES): Cc1cc(-c2[nH]c3cc(C(=O)N(C)[C@@H]4CNC[C@@H]4F)sc3c2C(C)C)cn2ncnc12 [Example 57]
EC50 (TLR7): 1.7 nM
EC50 (TLR8): 12.7 nM

Structure (SMILES): Cc1cc(-c2[nH]c3cc(C(=O)N(C)[C@@H]4CNC[C@H]4F)sc3c2C(C)C)cn2ncnc12 [Example 60]
EC50 (TLR7): 4.1 nM
EC50 (TLR8): 30.8 nM

Structure (SMILES): Cc1cc(-c2[nH]c3cc(C(=O)N(C)[C@H]4CNC[C@H]4F)sc3c2C(C)C)cn2ncnc12 [Example 61]
EC50 (TLR7): 7.9 nM
EC50 (TLR8): 17.4 nM

Structure (SMILES): CCc1c(-c2cc(C)c3ncnn3c2)[nH]c2cc(C(=O)N3CCNCC3)sc12 [Example 62, [6-ethyl-5-(8-methyl-[1,2,4]triazolo[1,5-a]pyridin-6-yl)-4H-thieno[3,2-b]pyrrol-2-yl]-piperazin-1-yl-methanone]
EC50 (TLR7): 5.5 nM
EC50 (TLR8): 5.7 nM

Structure (SMILES): CCc1c(-c2cc(C)c3ncnn3c2)[nH]c2cc(C(=O)N(C)C3CCNCC3)sc12 [Example 63]
EC50 (TLR7): 0.7 nM
EC50 (TLR8): 15.6 nM

Structure (SMILES): COc1cc(-c2[nH]c3cc(C(=O)N4CCNCC4)sc3c2C(C)C)cn2ncnc12 [Example 64, (6-isopropyl-5-(8-methoxy-[1,2,4]triazolo[1,5-a]pyridin-6-yl)-4H-thieno[3,2-b]pyrrol-2-yl)(piperazin-1-yl)methanone]
EC50 (TLR7): 0.9 nM
EC50 (TLR8): 3.3 nM

Structure (SMILES): Cc1cc(-c2[nH]c3cc(C(=O)N4CCNCC4)sc3c2C(C)C)cn2nnnc12 [Example 65]
EC50 (TLR7): 1.8 nM
EC50 (TLR8): 5.4 nM

Structure (SMILES): CC(C)c1c(-c2ccc3ncnn3c2)[nH]c2cc(C(=O)N3CCNCC3)sc12 [Example 66]
EC50 (TLR7): 25.7 nM
EC50 (TLR8): 16.1 nM

Now from value to compound:

EC50 (TLR7): 1 nM
EC50 (TLR8): 5.4 nM
Structure (SMILES): Cc1cc(-c2[nH]c3cc(-c4nnc(C5CCNCC5)s4)sc3c2C(C)C)cn2ncnc12 [Example 48, 6-isopropyl-5-(8-methyl-[1,2,4]triazolo[1,5-a]pyridin-6-yl)-2-(5-(piperidin-4-yl)-1,3,4-thiadiazol-2-yl)-4H-thieno[3,2-b]pyrrole]

EC50 (TLR7): 0.4 nM
EC50 (TLR8): 3.2 nM
Structure (SMILES): Cc1cc(-c2[nH]c3cc(-c4nnc(N5CCNCC5)s4)sc3c2C(C)C)cn2ncnc12 [Example 49]

EC50 (TLR7): 0.2 nM
EC50 (TLR8): 4.6 nM
Structure (SMILES): Cc1cc(-c2[nH]c3cc(C4=NC5(CCNCC5)CO4)sc3c2C(C)C)cn2ncnc12 [Example 50, 2-(6-isopropyl-5-(8-methyl-[1,2,4]triazolo[1,5-a]pyridin-6-yl)-4H-thieno[3,2-b]pyrrol-2-yl)-3-oxa-1,8-diazaspiro[4.5]dec-1-ene]

EC50 (TLR7): 74.7 nM
EC50 (TLR8): 16 nM
Structure (SMILES): Cc1cc(-c2[nH]c3cc(-c4nnc(N5CCNCC5)o4)sc3c2C(C)C)cc(C)n1 [Example 53]

EC50 (TLR7): 16.6 nM
EC50 (TLR8): 21.1 nM
Structure (SMILES): Cc1cc(-c2[nH]c3cc(C(=O)N(C)[C@H]4CNC[C@@H]4F)sc3c2C(C)C)cn2ncnc12 [Example 58]

EC50 (TLR7): 24.1 nM
EC50 (TLR8): 15.4 nM
Structure (SMILES): Cc1cc(-c2[nH]c3cc(C(=O)N4C[C@H](N)C[C@H](C(F)(F)F)C4)sc3c2C(C)C)cn2ncnc12 [Example 59]
